The source of these data is US20230097253A1, “NOVEL QUINAZOLINE COMPOUND AS THERAPEUTIC AGENT FOR METABOLIC DISORDERS” (BIOWAY., INC, priority 2020, published 2023).

For one assay, the system named is 3T3-L1 cells. The experiment in a line: Inhibition of fat globule formation in adipocytes by Oil-Red-O staining. The settings on record: 3T3-L1 adipocytes, 0.5, 2.5, 10 and 20 μM. It counts as cell-based, mouse. As to the method: In order to confirm the effect of the compound on reducing fat accumulation on adipocytes, 3TL-L1 mouse fat progenitor cells (American Type Culture Collection) were cultured in an incubator set at 37° C. with 95% humidity and 5% CO2.
Additionally, after sufficiently proliferating 3T3-L1 mouse adipocytes using a proliferation medium (Dulbecco's modified Eagle's medium (DMEM) supplemented with 10% bovine serum (BS), 100 U/mL of penicillin, and 100 μg/mL of streptomycin), the cells were treated with a differentiation medium (DMEM containing 10% FBS, 0.5 mM 3-isobutyl-1-methylxanthine, 1 […], and 5 μg/mL insulin) for 2 days.
Thereafter, the cells were treated with an induction medium (DMEM containing 10% FBS and 5 μg/mL insulin) for 2 days, the maintenance medium (DMEM containing 10% FBS) was replaced daily to maintain the differentiated adipocytes until the end of the experiment.
According to an embodiment of the present invention, in order to confirm the ability of the compound of Formula 2 to inhibit fat globule formation, the 3T3-L1 cells (which are fat progenitor cells) were induced to be differentiated into adipocytes, and then stained through Oil-Red-O staining. […]

Another assay addresses T1, SIRT1 (Homo sapiens, UniProt Q96EB6).
T1 construct: purchased Cayman
T1 sequence (Q96EB6 1-747): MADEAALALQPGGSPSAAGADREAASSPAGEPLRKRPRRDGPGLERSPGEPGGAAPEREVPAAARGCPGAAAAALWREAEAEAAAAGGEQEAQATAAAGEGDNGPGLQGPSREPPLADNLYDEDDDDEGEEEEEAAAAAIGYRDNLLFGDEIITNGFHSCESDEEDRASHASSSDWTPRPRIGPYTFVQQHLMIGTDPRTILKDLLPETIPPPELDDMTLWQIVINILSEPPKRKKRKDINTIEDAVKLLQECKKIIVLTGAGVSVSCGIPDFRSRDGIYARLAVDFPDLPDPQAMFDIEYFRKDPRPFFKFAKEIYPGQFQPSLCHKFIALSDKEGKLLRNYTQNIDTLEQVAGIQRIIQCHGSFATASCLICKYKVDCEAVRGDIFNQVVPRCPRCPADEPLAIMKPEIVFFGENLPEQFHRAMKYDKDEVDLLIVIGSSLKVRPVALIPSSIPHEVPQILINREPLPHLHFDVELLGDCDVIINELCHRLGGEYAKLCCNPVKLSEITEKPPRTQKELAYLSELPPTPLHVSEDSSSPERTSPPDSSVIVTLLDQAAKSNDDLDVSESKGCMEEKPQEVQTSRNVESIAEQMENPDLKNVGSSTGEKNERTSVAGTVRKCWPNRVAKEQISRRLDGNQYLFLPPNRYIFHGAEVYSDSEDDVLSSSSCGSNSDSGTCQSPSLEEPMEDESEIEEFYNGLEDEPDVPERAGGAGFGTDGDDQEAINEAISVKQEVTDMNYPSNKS
The assay can be described thus: Measurement of SIRT1 activity (Sirt1 direct fluorescent screening assay kit). The format is biochemical. The settings on record: compared with the control (RSV, resveratrol); FIG. 14. As for the experimental part:
All of the materials were provided from Sirt1 direct fluorescent screening assay kit (Cayman, Ann Arbor, Mich., USA).
SIRT1, p53 conjugated aminomethylcoumarin (AMC) protein, and 3 mM NAD+ were added to diluted assay buffer (50 mM Tris-HCl, pH 8.0, 137 mM NaCl, 2.7 mM KCl, and 1 mM MgCl2).
Three 100% initial activity wells among the 96-wells were added with 25 μL of assay buffer, 5 μL of diluted SIRT1, and 5 μL of a solvent.
Three background wells among the 96-wells were added with 30 μL of assay buffer and […].
Three sample wells among the 96-wells were added with 25 μL of assay buffer, 5 μL of diluted SIRT1, and 5 μL of a diluted test compound. The final DMSO concentration was lower than 2%. […]
After removing the plate cover, the plate was read with Cytation 5 using an excitation wavelength at 360 nm and an emission wavelength at 450 nm.
Then, the average level of fluorescence for each sample was measured.
The fluorescence level of the background well was subtracted from the fluorescence level of the 100% starting active well and that of the sample well.
To determine the percentage of each sample, each sample value was subtracted from the 100% initial activity value, divided by the 100% initial activity value, and multiplied by 100, and the resulting value was added to 100 and expressed as a percentage. […]

In a further assay the test system is DIAMOND™ mouse model. The assay can be described thus: In-vivo activity, histopathological diagnosis (H&E and Oil-Red-O staining of liver tissue). The settings on record: DIAMOND mice, 16 mg/kg oral once daily for 8 weeks, FIG. 18. As for the experimental part:
The DIAMOND™ mouse model, an animal model prepared using a Western diet and sugar water, was used. The DIAMOND™ mice were induced with WDSW for 14 weeks, and 12 mice were used for the control group and 12 mice for the BW-3290 treatment group, and BW-3290 was orally administered at 16 mg/kg once daily for 8 weeks. An autopsy was performed at week 22, and blood collection and tissue storage were performed for the individuals in each group.
Hematoxylin & Eosin (H&E) staining and Oil-Red-O (ORO) staining were performed using liver tissue obtained after autopsy

Molecules are shown by their SMILES.

With `CC(C)C(Nc1ncnc2nc[nH]c12)c1nc2cccc(Cl)c2c(=O)n1-c1ccccc1` (centres unmarked) [BW-3290, 2-(1-((7H-purin-6-yl)amino)-2-methylpropyl)-5-chloro-3-phenylquinazolin-4(3H)-one], in the assay on 3T3-L1 cells (concentration-dependent, FIG. 5), the “fat globule staining (Oil-Red-O) compared to differentiation” value was “lower level of fat globule staining compared to differentiation”. The “amount of stained fat globules” value in the assay with 3T3-L1 cells (FIG. 6) was “appeared less in a drug concentration-dependent manner”. Further, the SIRT1 activity level result on SIRT1 was “further increases”. In addition, in the assay with DIAMOND™ mouse model (compared to the control group (VC)), the “fat cells stained in red in liver tissue, ORO staining” value is “reduced”. Also, the “fat globules in liver tissue, H&E staining” value in the assay on DIAMOND™ mouse model (compared to the control group) was “reduced”.
